Results as given in patent US20260124184A1, “ONCE DAILY ALDOSTERONE SYNTHASE INHIBITOR (R)-(+)-5-(P-CYANOPHENYL)-5,6,7,8-TETRAHYDROIMIDAZO[L,5-A]PYRIDINE” (priority 2022, published 2026).
Where two headings read alike, the source gives them in different places.

Key:
[1] = system: patients with primary aldosteronism; settings: baseline urine aldosterone 100-250 μg/24-hour
Procedure: (§1) A double-blind, randomized, Phase 2 trial was conducted between November 2019 and June 2022 at 11 centres in Italy, Switzerland and the Netherlands (NCT04007406). […] Patients requiring fixed-dose antihypertensive therapy continued treatment throughout the study; steroid therapies, β-adrenergic and renin-angiotensin-aldosterone system blockers were not permitted. At 14-day intervals, office blood pressures were recorded and blood samples were taken for measurement of steroid and peptide hormones and electrolytes at a central laboratory.
The urinary content of tetrahydroaldosterone (THA) was measured centrally by gas chromatography-coupled mass spectrometry (GC-MS).

[2] = system: patients with primary aldosteronism
Procedure: as §1
Plasma aldosterone and plasma renin concentration were measured centrally under GCP regulations using the Liaison® chemiluminescent immunoassay kit supplied by DiaSorin S.p.A. Italy. The system used specific monoclonal antibodies to prevent cross reactions with other major potential reactants in the serum samples. The monoclonal antibodies directed against specific epitopes of the renin molecule allowed accurate and sensitive quantification. The assays were performed according to the instructions provided by the manufacturer. […] The analytical sensitivity was <0.97 ng/ml. […] The analytical sensitivity was <0.53 IU/mL.

## (R)-(+)-5-(p-cyanophenyl)-5,6,7,8-tetrahydroimidazolium[1,5-a]pyridine dihydrogen phosphate [dexfadrostat phosphate]
[1]; 4 mg QD, Day 56
  urine aldosterone content, mean: 13 μg/24-hour
[1]; 8 mg QD, Day 1 (baseline)
  urine aldosterone content, mean: 69 μg/24-hour
[1]; 8 mg QD, Day 56
  urine aldosterone content, mean: 5 μg/24-hour
[1]; 12 mg QD, Day 1 (baseline)
  urine aldosterone content, mean: 68 μg/24-hour
[1]; 12 mg QD, Day 56
  urine aldosterone content, mean: 12 μg/24-hour
[2]; baseline aldosterone 400-600 pmol/L, 4 mg QD, Day 1 (baseline)
  plasma aldosterone concentration, mean: 433 pmol/L
[2]; baseline aldosterone 400-600 pmol/L, 4 mg QD, Day 14
  plasma aldosterone concentration, mean: 155 pmol/L
[2]; baseline aldosterone 400-600 pmol/L, 4 mg QD, Day 28
  plasma aldosterone concentration, mean: 100 pmol/L
[2]; baseline aldosterone 400-600 pmol/L, 4 mg QD, Day 42
  plasma aldosterone concentration, mean: 117 pmol/L
[2]; baseline aldosterone 400-600 pmol/L, 4 mg QD, Day 56
  plasma aldosterone concentration, mean: 141 pmol/L
[2]; baseline aldosterone 400-600 pmol/L, 4 mg QD, Day 70 (placebo withdrawal)
  plasma aldosterone concentration, mean: 425 pmol/L
[2]; baseline aldosterone 400-600 pmol/L, 8 mg QD, Day 1 (baseline)
  plasma aldosterone concentration, mean: 404 pmol/L
[2]; baseline aldosterone 400-600 pmol/L, 8 mg QD, Day 14
  plasma aldosterone concentration, mean: 70 pmol/L
[2]; baseline aldosterone 400-600 pmol/L, 8 mg QD, Day 28
  plasma aldosterone concentration, mean: 70 pmol/L
[2]; baseline aldosterone 400-600 pmol/L, 8 mg QD, Day 42
  plasma aldosterone concentration, mean: 47 pmol/L
[2]; baseline aldosterone 400-600 pmol/L, 8 mg QD, Day 56
  plasma aldosterone concentration, mean: 58 pmol/L
[2]; baseline aldosterone 400-600 pmol/L, 8 mg QD, Day 70 (placebo withdrawal)
  plasma aldosterone concentration, mean: 300 pmol/L
[2]; baseline aldosterone 400-600 pmol/L, 12 mg QD, Day 1 (baseline)
  plasma aldosterone concentration, mean: 431 pmol/L
[2]; baseline aldosterone 400-600 pmol/L, 12 mg QD, Day 14
  plasma aldosterone concentration, mean: 63 pmol/L
[2]; baseline aldosterone 400-600 pmol/L, 12 mg QD, Day 28
  plasma aldosterone concentration, mean: 132 pmol/L
[2]; baseline aldosterone 400-600 pmol/L, 12 mg QD, Day 42
  plasma aldosterone concentration, mean: 142 pmol/L
[2]; baseline aldosterone 400-600 pmol/L, 12 mg QD, Day 56
  plasma aldosterone concentration, mean: 61 pmol/L
[2]; baseline aldosterone 400-600 pmol/L, 12 mg QD, Day 70 (placebo withdrawal)
  plasma aldosterone concentration, mean: 297 pmol/L
[2]; baseline aldosterone 600-1000 pmol/L, 4 mg QD, Day 1 (baseline)
  plasma aldosterone concentration, mean: 728 pmol/L
[2]; baseline aldosterone 600-1000 pmol/L, 4 mg QD, Day 14
  plasma aldosterone concentration, mean: 186 pmol/L
[2]; baseline aldosterone 600-1000 pmol/L, 4 mg QD, Day 28
  plasma aldosterone concentration, mean: 248 pmol/L
[2]; baseline aldosterone 600-1000 pmol/L, 4 mg QD, Day 42
  plasma aldosterone concentration, mean: 114 pmol/L
[2]; baseline aldosterone 600-1000 pmol/L, 4 mg QD, Day 56
  plasma aldosterone concentration, mean: 250 pmol/L
[2]; baseline aldosterone 600-1000 pmol/L, 4 mg QD, Day 70 (placebo withdrawal)
  plasma aldosterone concentration, mean: 325 pmol/L
[2]; baseline aldosterone 600-1000 pmol/L, 8 mg QD, Day 1 (baseline)
  plasma aldosterone concentration, mean: 805 pmol/L
[2]; baseline aldosterone 600-1000 pmol/L, 8 mg QD, Day 14
  plasma aldosterone concentration, mean: 83 pmol/L
[2]; baseline aldosterone 600-1000 pmol/L, 8 mg QD, Day 28
  plasma aldosterone concentration, mean: 120 pmol/L
[2]; baseline aldosterone 600-1000 pmol/L, 8 mg QD, Day 42
  plasma aldosterone concentration, mean: 123 pmol/L
[2]; baseline aldosterone 600-1000 pmol/L, 8 mg QD, Day 56
  plasma aldosterone concentration, mean: 131 pmol/L
[2]; baseline aldosterone 600-1000 pmol/L, 8 mg QD, Day 70 (placebo withdrawal)
  plasma aldosterone concentration, mean: 423 pmol/L
[2]; baseline aldosterone 600-1000 pmol/L, 12 mg QD, Day 1 (baseline)
  plasma aldosterone concentration, mean: 912 pmol/L
[2]; baseline aldosterone 600-1000 pmol/L, 12 mg QD, Day 14
  plasma aldosterone concentration, mean: 123 pmol/L
[2]; baseline aldosterone 600-1000 pmol/L, 12 mg QD, Day 28
  plasma aldosterone concentration, mean: 104 pmol/L
[2]; baseline aldosterone 600-1000 pmol/L, 12 mg QD, Day 42
  plasma aldosterone concentration, mean: 85 pmol/L
[2]; baseline aldosterone 600-1000 pmol/L, 12 mg QD, Day 56
  plasma aldosterone concentration, mean: 82 pmol/L
[2]; baseline aldosterone 600-1000 pmol/L, 12 mg QD, Day 70 (placebo withdrawal)
  plasma aldosterone concentration, mean: 466 pmol/L
[2]; baseline aldosterone 1000-2500 pmol/L, 4 mg QD, Day 1 (baseline)
  plasma aldosterone concentration, mean: 2005 pmol/L
[2]; baseline aldosterone 1000-2500 pmol/L, 4 mg QD, Day 14
  plasma aldosterone concentration, mean: 816 pmol/L
[2]; baseline aldosterone 1000-2500 pmol/L, 4 mg QD, Day 28
  plasma aldosterone concentration, mean: 531 pmol/L
[2]; baseline aldosterone 1000-2500 pmol/L, 4 mg QD, Day 42
  plasma aldosterone concentration, mean: 629 pmol/L
[2]; baseline aldosterone 1000-2500 pmol/L, 4 mg QD, Day 56
  plasma aldosterone concentration, mean: 589 pmol/L
[2]; baseline aldosterone 1000-2500 pmol/L, 4 mg QD, Day 70 (placebo withdrawal)
  plasma aldosterone concentration, mean: 1393 pmol/L
[2]; baseline aldosterone 1000-2500 pmol/L, 8 mg QD, Day 1 (baseline)
  plasma aldosterone concentration, mean: 1080 pmol/L
[2]; baseline aldosterone 1000-2500 pmol/L, 8 mg QD, Day 14
  plasma aldosterone concentration, mean: 27 pmol/L
[2]; baseline aldosterone 1000-2500 pmol/L, 8 mg QD, Day 28
  plasma aldosterone concentration, mean: 57 pmol/L
[2]; baseline aldosterone 1000-2500 pmol/L, 8 mg QD, Day 42
  plasma aldosterone concentration, mean: 27 pmol/L
[2]; baseline aldosterone 1000-2500 pmol/L, 8 mg QD, Day 56
  plasma aldosterone concentration, mean: 27 pmol/L
[2]; baseline aldosterone 1000-2500 pmol/L, 8 mg QD, Day 70 (placebo withdrawal)
  plasma aldosterone concentration, mean: 395 pmol/L
[2]; baseline aldosterone 1000-2500 pmol/L, 12 mg QD, Day 1 (baseline)
  plasma aldosterone concentration, mean: 1410 pmol/L
[2]; baseline aldosterone 1000-2500 pmol/L, 12 mg QD, Day 14
  plasma aldosterone concentration, mean: 111 pmol/L
[2]; baseline aldosterone 1000-2500 pmol/L, 12 mg QD, Day 28
  plasma aldosterone concentration, mean: 74 pmol/L
[2]; baseline aldosterone 1000-2500 pmol/L, 12 mg QD, Day 42
  plasma aldosterone concentration, mean: 71 pmol/L
[2]; baseline aldosterone 1000-2500 pmol/L, 12 mg QD, Day 56
  plasma aldosterone concentration, mean: 349 pmol/L
[2]; baseline aldosterone 1000-2500 pmol/L, 12 mg QD, Day 70 (placebo withdrawal)
  plasma aldosterone concentration, mean: 1264 pmol/L
